PubChem BioAssay AID248 (DTP/NCI, 2004)
Values joined by “and” are separate entries in the source; they are usually repeats but may differ in a detail not shown here. Equal entries are not always repeated. Toxic doses and inconclusive results are not listed. Rule as the data show it: active = T/C of 150% or more; inactive = T/C below 125%.

System: L1210 leukemia ip in BDF1 mice, survival T/C
Experiment: NCI In Vivo Anticancer Drug Screen. Data for tumor model L1210 Leukemia (intraperitoneal) in B6D2F1 (BDF1) mice
Details: endpoint: mean survival time, higher = longer survival
Summary of the method: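 Tumor was transplanted into mice, which were then dosed with test compound or vehicle alone. Survival was recorded for each group, and the treated figure was expressed relative to the control figure.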

[1] = dose: 100.0 mg/kg/injection, schedule: Q01DX001 (ip), vehicle: saline
[2] = dose: 200.0 mg/kg/injection, schedule: Q01DX001 (ip), vehicle: saline
[3] = dose: 400.0 mg/kg/injection, schedule: Q01DX001 (ip), vehicle: saline
[4] = dose: 100.0 mg/kg/injection, schedule: Q01DX009 (ip), vehicle: Klucel (hydroxypropylcellulose) (HPC)
[5] = dose: 100.0 mg/kg/injection, schedule: Q04DX003 (ip), vehicle: Klucel (hydroxypropylcellulose) (HPC)
[6] = dose: 200.0 mg/kg/injection, schedule: Q01DX009 (ip), vehicle: Klucel (hydroxypropylcellulose) (HPC)
[7] = dose: 200.0 mg/kg/injection, schedule: Q04DX003 (ip), vehicle: Klucel (hydroxypropylcellulose) (HPC)
[8] = dose: 400.0 mg/kg/injection, schedule: Q01DX009 (ip), vehicle: Klucel (hydroxypropylcellulose) (HPC)
[9] = dose: 400.0 mg/kg/injection, schedule: Q04DX003 (ip), vehicle: Klucel (hydroxypropylcellulose) (HPC)
[10] = dose: 50.0 mg/kg/injection, schedule: Q01DX009 (ip), vehicle: saline with Tween-80
[11] = dose: 100.0 mg/kg/injection, schedule: Q01DX009 (ip), vehicle: saline with Tween-80
[12] = dose: 200.0 mg/kg/injection, schedule: Q01DX009 (ip), vehicle: saline with Tween-80
[13] = dose: 100.0 mg/kg/injection, schedule: Q01DX001 (ip), vehicle: carboxymethylcellulose (CMC)
[14] = dose: 200.0 mg/kg/injection, schedule: Q01DX001 (ip), vehicle: carboxymethylcellulose (CMC)
[15] = dose: 400.0 mg/kg/injection, schedule: Q01DX001 (ip), vehicle: carboxymethylcellulose (CMC)
[16] = dose: 100.0 mg/kg/injection, schedule: Q04DX002 (ip), vehicle: Klucel (hydroxypropylcellulose) (HPC)
[17] = dose: 200.0 mg/kg/injection, schedule: Q04DX002 (ip), vehicle: Klucel (hydroxypropylcellulose) (HPC)
[18] = dose: 400.0 mg/kg/injection, schedule: Q04DX002 (ip), vehicle: Klucel (hydroxypropylcellulose) (HPC)
[19] = dose: 50.0 mg/kg/injection, schedule: Q01DX001 (ip), vehicle: carboxymethylcellulose (CMC)

Measured: T/C

O=C1c2cccc(Cl)c2C(=O)c2c(O)ccc(O)c21
inactive: dose: 100.0 mg/kg/injection, schedule: Q04DX002 (ip), vehicle: saline with Tween-80 87 % of control | dose: 200.0 mg/kg/injection, schedule: Q04DX002 (ip), vehicle: saline with Tween-80 97 % of control | dose: 400.0 mg/kg/injection, schedule: Q04DX002 (ip), vehicle: saline with Tween-80 97 % of control

Cn1c(N)c(N=Nc2ccc(S(N)(=O)=O)cc2)c(=O)n(C)c1=O
inactive: [1] 94 % of control | [2] 102 % of control | [3] 96 % of control

COC1OC2COC(c3ccccc3)OC2C(O)C1OC (stereo not given)
inactive: dose: 12.5 mg/kg/injection, schedule: Q04DX002 (ip), vehicle: saline 100 % of control | dose: 25.0 mg/kg/injection, schedule: Q04DX002 (ip), vehicle: saline 100 % of control | dose: 50.0 mg/kg/injection, schedule: Q04DX002 (ip), vehicle: saline 116 % of control

c1ccc(COc2ccc3oc4ccccc4c3c2)cc1
inactive: [4] 96 % of control | [5] 94 % of control | [6] 94 % of control | [7] 96 % of control | [8] 96 % of control | [9] 91 % of control

N#Cc1ccc(Cl)cc1.N#Cc1ccc(Cl)cc1.[Cl][Pt][Cl]
inactive: dose: 6.25 mg/kg/injection, schedule: Q04DX003 (ip), vehicle: water 109 % of control | dose: 12.5 mg/kg/injection, schedule: Q04DX003 (ip), vehicle: water 105 % of control | dose: 25.0 mg/kg/injection, schedule: Q04DX003 (ip), vehicle: water 107 % of control | dose: 50.0 mg/kg/injection, schedule: Q04DX003 (ip), vehicle: water 109 % of control

CCN(CC)CCCC(C)NC(=O)c1ccc(Cl)nc1 (stereo not given)
inactive: [10] 105 % of control | [11] 103 % of control | [12] 95 % of control

O=c1[nH]c(=O)c2[nH]cnc2[nH]1
inactive: [10] 100 % of control | [11] 94 % of control | [12] 90 % of control

C#CCC(C)OS(=O)(=O)c1ccc(C)cc1 (stereo not given)
inactive: [1] 98 % of control | dose: 100.0 mg/kg/injection, schedule: Q04DX003 (ip), vehicle: saline 93 % of control | [2] 102 % of control | dose: 200.0 mg/kg/injection, schedule: Q04DX003 (ip), vehicle: saline 93 % of control | [3] 98 % of control | dose: 400.0 mg/kg/injection, schedule: Q04DX003 (ip), vehicle: saline 91 % of control

NC1=NC(=O)/C(=C/c2ccccc2)S1
inactive: [13] 100 % of control | [11] 90 % of control | [14] 89 % of control | [12] 91 % of control | [15] 86 % of control

CN(c1ccccc1)c1ccc([N+](=O)[O-])cc1[N+](=O)[O-]
inactive: [13] 98 % of control | [14] 102 % of control | [15] 107 % of control

CCN(CC)CCCC(C)Nc1ccccn1 (stereo not given)
inactive: dose: 75.0 mg/kg/injection, schedule: Q01DX001 (ip), vehicle: carboxymethylcellulose (CMC) 102 % of control | dose: 150.0 mg/kg/injection, schedule: Q01DX001 (ip), vehicle: carboxymethylcellulose (CMC) 100 % of control

Cc1ccccc1OC(F)(F)C(F)Cl (stereo not given)
inactive: [11] 103 % of control | dose: 100.0 mg/kg/injection, schedule: Q04DX003 (ip), vehicle: saline with Tween-80 96 % of control | [12] 91 % of control | dose: 200.0 mg/kg/injection, schedule: Q04DX003 (ip), vehicle: saline with Tween-80 94 % of control | dose: 400.0 mg/kg/injection, schedule: Q01DX009 (ip), vehicle: saline with Tween-80 86 % of control | dose: 400.0 mg/kg/injection, schedule: Q04DX003 (ip), vehicle: saline with Tween-80 96 % of control

Cc1ccc(N=Cc2ccc([N+](=O)[O-])s2)cc1Cl
inactive: [5] 91 % of control | [7] 89 % of control

CCSC1C(O)C(C(O)CO)OC1n1cnc2c(N)ncnc21 (stereo not given)
inactive: dose: 100.0 mg/kg/injection, schedule: Q01DX005 (ip), vehicle: saline 98 % of control and 105 % of control and 102 % of control | dose: 200.0 mg/kg/injection, schedule: Q01DX005 (ip), vehicle: saline 98 % of control and 100 % of control and 96 % of control | dose: 400.0 mg/kg/injection, schedule: Q01DX005 (ip), vehicle: saline 104 % of control

CCCCCCCCCC(=O)Nc1cccc(C)c1C
inactive: [16] 105 % of control | [17] 94 % of control | [18] 94 % of control

O=C1NC(=O)C2C(c3ccccc3)=NOC2N1 (stereo not given)
inactive: [4] 103 % of control | [5] 97 % of control | [6] 103 % of control | [7] 90 % of control | [8] 98 % of control | [9] 97 % of control

CC(=O)N(N=O)c1ccc(C)cc1
inactive: dose: 5.0 mg/kg/injection, schedule: Q01DX001 (ip), vehicle: saline 101 % of control | dose: 10.0 mg/kg/injection, schedule: Q01DX001 (ip), vehicle: saline 92 % of control | dose: 20.0 mg/kg/injection, schedule: Q01DX001 (ip), vehicle: saline 92 % of control | dose: 40.0 mg/kg/injection, schedule: Q01DX001 (ip), vehicle: saline 106 % of control

O=P(O)(O)CCC(F)(F)C(F)(F)C(F)(F)C(F)(F)C(F)(F)C(F)(F)C(F)(F)F
inactive: dose: 75.0 mg/kg/injection, schedule: Q01DX001 (ip), vehicle: saline 96 % of control

O=CN/N=C/c1cc(=O)[nH]c(=O)[nH]1
inactive: [1] 87 % of control | [2] 87 % of control | [3] 93 % of control

CCOC(=O)c1cc2c(-c3ccccc3)c(-c3ccccc3)c(-c3ccccc3)c(-c3ccccc3)n2n1
inactive: [1] 93 % of control | [3] 93 % of control

CCCCN1C(=S)NC(C)(C)C=C1C
inactive: dose: 12.5 mg/kg/injection, schedule: Q04DX003 (ip), vehicle: saline with Tween-80 95 % of control | dose: 25.0 mg/kg/injection, schedule: Q04DX003 (ip), vehicle: saline with Tween-80 98 % of control | dose: 50.0 mg/kg/injection, schedule: Q04DX003 (ip), vehicle: saline with Tween-80 96 % of control

Cc1ccc(S(=O)(=O)Nc2cc(C)cc(CCNC=O)c2C)cc1
inactive: [19] 114 % of control | [13] 109 % of control | [14] 95 % of control | [15] 93 % of control

COc1ccc(OC)c(NC(=O)NNc2c([N+](=O)[O-])cc(C(F)(F)F)cc2[N+](=O)[O-])c1
inactive: dose: 100.0 mg/kg/injection, schedule: Q01DX009 (ip), vehicle: other 97 % of control | dose: 200.0 mg/kg/injection, schedule: Q01DX009 (ip), vehicle: other 89 % of control

Cc1ccc2c(c1)C(=O)c1ccccc1C2=O
inactive: [19] 95 % of control | [13] 101 % of control | [16] 100 % of control | [14] 91 % of control | [17] 107 % of control | [15] 95 % of control | [18] 96 % of control

COc1ccc(NNP(=O)(CCl)N(CCCl)CCCl)cc1 (stereo not given)
inactive: dose: 100.0 mg/kg/injection, schedule: Q01DX001 (ip), vehicle: Klucel (hydroxypropylcellulose) (HPC) 104 % of control | dose: 200.0 mg/kg/injection, schedule: Q01DX001 (ip), vehicle: Klucel (hydroxypropylcellulose) (HPC) 108 % of control | dose: 400.0 mg/kg/injection, schedule: Q01DX001 (ip), vehicle: Klucel (hydroxypropylcellulose) (HPC) 108 % of control
